Data on five compounds can be found in patent publication US20170314056A1, “METHOD OF USING NEAR INFRARED FLUORESCENT DYES FOR IMAGING AND TARGETING CANCERS” (priority 2010, published 2017).

The subject of data set [1] is organic anion transporting peptides (OATPs). The experiment in a line: Blockade of dye uptake into ARCaPM cells by BSP. The class given is cell-based, human. The following applies: 250 μM BSP. The protocol:
ARCaPM Cells were plated on live-cell imaging chambers from World Precision Instrument (Sarasota, Fla.) overnight. Cells were treated with 20 μM IR-780 and 250 μM BSP at the same time and cells were imaged using a Perkin-Elmer Ultraview ERS spinning disc confocal microscope.
To determine if the cyanine dye uptake and accumulation in cancer cells was dependent upon OATPs, cells were preincubated with 250 μM bromosulfophthalein (BSP), a competitive inhibitor of organic anion transporting peptides (OATPs) (25), for 5 minutes prior to incubating the cells with cyanine dyes. The uptake and accumulation of cyanine dyes in the presence and absence of BSP were conducted in the stage warmer incubator for a period of 35 minutes. The levels of cyanine dye taken up and accumulated in normal prostate (P69) and prostate cancer (ARCaPM) cells were determined and compared on a real-time basis.

The conditions of data set [2]: mouse, in vivo. The protocol: In control mice, the same volume of PBS was injected. The body weight and lethality of these mice were closely followed for 28 days.
The subject of data set [3] is MIA PaCa-2 human pancreatic cancer cells. The experiment in a line: Structural requirement screen for cancer cell uptake and retention. The class given is cell-based. The following applies: cultured MIA PaCa-2 cells. On the procedure:
FIG. 45 depicts structural requirement of heptamethine cyanine dyes for cancer cell uptake and retention in accordance with various embodiments of the present invention. A series of heptamethine cyanine dyes and their derivatives were screened in cultured MIA PaCa-2 human pancreatic cancer cells with parental MHI-148 served as a positive control.
Cells (1×10^4/well) were seeded on vitronectin-coated four-well chamber slides (Nalgen Nunc, Naperville, Ill.) and incubated with T-medium containing 5% FBS for 24 h. After the cells had attached to the chamber slides, the cells were washed with PBS (Phosphate Buffered Saline) and exposed to the cyanine dye at a concentration of 20 μM in T-medium. The slides were incubated at 37° C. for 30 min, washed twice with PBS to remove excess dyes, and cells were fixed with 10% formaldehyde at 4° C. The slides were then washed twice with PBS and covered with glass coverslips with an aqueous mounting medium (Sigma-Aldrich, St. Louis, Mo.). Images were recorded by confocal laser microscopy (Zeiss LSM 510 META, Germany) using a 633 nm excitation laser and 670-810 nm long pass filter, or a fluorescence microscope (Olympus 1×71; Olympus, Melville, N.Y.) equipped with a 75 W Xenon lamp and an Indo-Cyanine Green filter cube (excitation 750-800 nm; emission 820-860 nm) (Chroma, Rockingham, Vt.).

Data set [4] relates to cultured human cancer cell lines in vitro and their xenograft tumors in vivo. The experiment in a line: Classification of heptamethine cyanine dyes as active or inactive. The following applies: specific uptake in vitro and in xenograft tumors in vivo, NIR fluorescence imaging. Type of data set: cell-based. On the set-up: key: Active: Activity of the dyes denotes specific uptake by cultured human cancer cell lines in vitro and their xenograft tumors in vivo, setermined by NIR fluorescence imaging.; Inactive: These heptamethine cyanine dyes were not accumulated in tumor cells in vitro and xenograft tumors in vivo. From the text: A comparative analysis also uncovered several common structural features of heptamethine cyanine dyes accounting for their preferential uptake and retention by cancer cells. […] A rigid cyclohexenyl ring in the heptamethine chain with a central chlorine atom maintains photostability, increases quantum yield, decreases photobleaching, and reduces dye aggregation in solution (1).

The subject of data set [5] is human renal cancer SN12C at subcutaneous sites. The experiment in a line: Structural requirement of uptake and retention by tumor tissues in mice. Type of data set: in vivo. The following applies: i.p. 10 nmol per mouse, 24 hrs. On the procedure:
FIG. 46 depicts structural requirement of the uptake and retention of heptamethine cyanine dyes by tumor tissues in mice in accordance with various embodiments of the present invention. Mice bearing human renal cancer SN12C at subcutaneous sites were injected i.p. with MHI-148, IR-1, IR-2, IR-3 and IR-4 heptamethine cyanine dyes at a dose of 10 nmol per mouse. Whole-body optical imaging was taken at 24 hrs using a Kodak Imaging System.
During imaging, mice were maintained in an anesthetized state.

SMILES strings stand for the structures. “Also recorded” adds a separate entry of the source.

For `O=C1OC(c2ccc(O)c(S(=O)(=O)O)c2)(c2ccc(O)c(S(=O)(=O)O)c2)c2c(Br)c(Br)c(Br)c(Br)c21` [BSP, bromosulfophthalein], the “effect on uptake of IR-780 by ARCaPM cells” value in data set [1] (20 μM IR-780) is “complete blockade; also recorded: significantly inhibited”. Also, the “effect on uptake of IR-783 by ARCaPM cells” value in data set [1] (20 μM IR-783) is given as “abolished; also recorded: abrogated”.
Take `CC1(C)C(/C=C/C=C/C=C/C=C2\N(CCCCS(=O)(=O)O)c3ccc4ccccc4c3C2(C)C)=[N+](CCCCS(=O)(=O)[O-])c2ccc3ccccc3c21` [ICG, indocyanine green, reference compound]: the “toxicity as evidenced by gains of body weight” value in data set [2] is listed as “no toxicity was detected”.
Turning to `CC1(C)/C(=C\C=C2/CCCC(/C=C/C3N(CCCO)c4ccccc4C3(C)C)=C2Cl)N(CCCO)c2ccccc21` (stereo not drawn) [IR-1], in data set [3], the “uptake and retention by cancer cell line compared with MHI-148” value is “devoid of any uptake and retention”. Besides, in data set [4], the “Active and inactive heptamethine cyanine dyes” value is reported as “Inactive dyes^b”. Besides, the “tumor fluorescence signal in whole-body optical imaging” value (shortened to “tumor fluorescence signal”) in data set [5] is recorded as “background fluorescence signals”.
With `CC(=O)OCCCN1/C(=C/C=C2\CCCC(/C=C/C3N(CCCOC(C)=O)c4ccccc4C3(C)C)=C2Cl)C(C)(C)c2ccccc21` (stereo not drawn) [IR-2], the “uptake and retention by cancer cell line compared with MHI-148” value in data set [3] is “devoid of any uptake and retention”. In addition, the “Active and inactive heptamethine cyanine dyes” value in data set [4] was “Inactive dyes^b”. In addition, in data set [5], the “tumor fluorescence signal” value is listed as “background fluorescence signals”.
`CC1(C)/C(=C\C=C2/CCCC(/C=C/C3N(CCCN)c4ccccc4C3(C)C)=C2Cl)N(CCCN)c2ccccc21` (stereo not drawn) [IR-3]: the “uptake and retention by cancer cell line compared with MHI-148” value in data set [3] is “devoid of any uptake and retention”. For the same compound, the “Active and inactive heptamethine cyanine dyes” value in data set [4] is “Inactive dyes^b”. Also, the “tumor fluorescence signal” value in data set [5] is recorded as “background fluorescence signals”.
